Experimental data: the supplement of paper PMC10307832

What was measured:
Assay in all cases: relative viability (nuclei count vs DMSO), 5 days (fraction); higher = more cells survive
[1] = compound: COc1cc(Nc2ncc(F)c(Nc3ccc4c(n3)NC(=O)C(C)(C)O4)n2)cc(OC)c1OC [R406] + CS(=O)(=O)CCNCc1ccc(-c2ccc3ncnc(Nc4ccc(OCc5cccc(F)c5)c(Cl)c4)c3c2)o1 [Lapatinib] (partner 2 µM)
Summary of the method: (§1)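 Lung cancer cell lines were seeded in 1536-well plates and dosed by pin tool the next day, with either a single drug or a fixed anchor-drug dose combined with five library-drug doses (not always all listed) spaced in √10 steps. Five days later, one step fixed the cells and stained their nuclei (final 0.05% Triton X-100, 1% formaldehyde, 1 ug/ml Hoechst), and nuclei were counted on 4× images. Relative viability is the nuclei count in treated wells divided by the count in vehicle wells, and each value is the median of duplicate plates.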

[2] = compound: O=C(/C=C/c1cccnc1)NCCCCC1CCN(C(=O)c2ccccc2)CC1 [Daporinad] + Cc1cc(Nc2cc(N3CCN(C)CC3)nc(Sc3ccc(NC(=O)C4CC4)cc3)n2)n[nH]1 [Tozasertib] (partner 0.1 µM)
Summary of the method: as §1

[3] = compound: COc1cc(Nc2ncc(F)c(Nc3ccc4c(n3)NC(=O)C(C)(C)O4)n2)cc(OC)c1OC [R406] + O=C(c1cc(Cc2n[nH]c(=O)c3ccccc23)ccc1F)N1CCN(C(=O)C2CC2)CC1 [Olaparib] (partner 8 µM)
Summary of the method: as §1

[4] = compound: O=C(/C=C/c1cccnc1)NCCCCC1CCN(C(=O)c2ccccc2)CC1 [Daporinad] + Nc1ncn([C@H]2C[C@H](O)[C@@H](CO)O2)c(=O)n1 [Decitabine] (partner 2 µM)
Summary of the method: as §1

| Cell Line | relative viability ([1]; first compound 0.08 µM) | relative viability ([1]; first compound 0.253 µM) | relative viability ([1]; first compound 0.8 µM) | relative viability ([1]; first compound 8 µM) | relative viability ([2]; first compound 0.0005 µM) | relative viability ([2]; first compound 0.001581 µM) | relative viability ([2]; first compound 0.005 µM) | relative viability ([2]; first compound 0.01581 µM) | relative viability ([3]; first compound 0.08 µM) | relative viability ([3]; first compound 0.253 µM) | relative viability ([3]; first compound 0.8 µM) | relative viability ([3]; first compound 2.53 µM) | relative viability ([3]; first compound 8 µM) | relative viability ([4]; first compound 0.0005 µM) | relative viability ([4]; first compound 0.005 µM) | relative viability ([4]; first compound 0.01581 µM) | relative viability ([1]; first compound 2.53 µM) | relative viability ([4]; first compound 0.001581 µM) |
| --- | --- | --- | --- | --- | --- | --- | --- | --- | --- | --- | --- | --- | --- | --- | --- | --- | --- | --- |
| HCC-366 | 0.908 | 1.15 | 1.17 | 0.356 | 0.103 | 0.0734 | 0.124 | 0.171 | 0.33 | 0.391 | 0.349 | 0.316 | 0.0913 | 0.413 | 0.368 | 0.321 |  |  |
| HCC-827 | 0.163 | 0.21 | 0.186 | 0.17 | 0.428 | 0.445 | 0.513 | 0.446 | 0.724 | 0.663 | 0.667 | 0.522 | 0.545 | 0.322 | 0.351 | 0.336 | 0.169 | 0.356 |
| HOP-62 | 0.918 | 0.949 | 1.08 | 1.12 | 0.379 | 0.432 | 0.332 | 0.353 | 0.252 | 0.415 | 0.575 | 0.517 | 0.495 | 0.176 | 0.208 | 0.179 | 1.06 | 0.209 |
| IA-LM | 0.99 | 1.26 | 0.797 | 0.777 |  |  |  |  | 0.835 | 1.03 | 0.913 | 0.986 | 0.882 |  |  |  | 1.01 |  |
| LC-2-ad | 0.986 | 0.847 | 1.03 | 0.0913 | 0.516 | 0.544 | 0.459 | 0.427 | 0.728 | 0.809 | 0.694 | 0.699 | 0.45 | 0.769 | 0.743 | 0.838 | 0.112 | 0.882 |
| LCLC-97TM1 | 0.647 | 0.855 | 1.06 | 1.13 | 0.194 | 0.432 | 0.181 | 0.253 | 0.371 | 0.465 | 0.534 | 0.253 | 0.179 | 0.221 | 0.209 | 0.233 | 0.717 | 0.243 |
| LCLC-103H |  |  |  |  | 0.548 | 0.5 | 0.514 | 0.525 | 0.77 | 0.888 | 0.81 | 0.762 | 0.302 | 0.793 | 0.744 | 0.774 |  | 0.692 |
| LK-2 | 0.856 | 1.03 | 0.843 | 0.321 | 0.17 | 0.168 | 0.194 | 0.169 | 0.592 | 1.13 | 0.888 | 0.661 | 0.305 | 0.338 | 0.228 | 0.13 | 0.472 | 0.323 |
| LOU-NH91 | 0.785 | 0.792 | 0.734 | 0.537 | 0.754 | 0.699 | 0.792 | 0.906 | 0.898 | 0.956 | 0.934 | 0.658 | 0.478 | 0.824 | 0.877 | 0.947 | 0.564 | 0.837 |
| LU99A | 0.946 | 0.849 | 1.08 | 0.482 | 0.26 | 0.254 | 0.29 | 0.249 | 0.244 | 0.258 | 0.267 | 0.218 | 0.234 | 0.898 | 0.943 | 0.645 |  | 0.908 |
